From patent US6794386B2, “β-amino acid compounds as integrin antagonists” (Bayer Aktiengesellschaft, priority 2000, dated 2004) come the findings set out here.

What is called IC50 is the concentration at which inhibition is half-maximal.

Some results are limits rather than exact numbers.

T1 sequence (P13612 34-1032): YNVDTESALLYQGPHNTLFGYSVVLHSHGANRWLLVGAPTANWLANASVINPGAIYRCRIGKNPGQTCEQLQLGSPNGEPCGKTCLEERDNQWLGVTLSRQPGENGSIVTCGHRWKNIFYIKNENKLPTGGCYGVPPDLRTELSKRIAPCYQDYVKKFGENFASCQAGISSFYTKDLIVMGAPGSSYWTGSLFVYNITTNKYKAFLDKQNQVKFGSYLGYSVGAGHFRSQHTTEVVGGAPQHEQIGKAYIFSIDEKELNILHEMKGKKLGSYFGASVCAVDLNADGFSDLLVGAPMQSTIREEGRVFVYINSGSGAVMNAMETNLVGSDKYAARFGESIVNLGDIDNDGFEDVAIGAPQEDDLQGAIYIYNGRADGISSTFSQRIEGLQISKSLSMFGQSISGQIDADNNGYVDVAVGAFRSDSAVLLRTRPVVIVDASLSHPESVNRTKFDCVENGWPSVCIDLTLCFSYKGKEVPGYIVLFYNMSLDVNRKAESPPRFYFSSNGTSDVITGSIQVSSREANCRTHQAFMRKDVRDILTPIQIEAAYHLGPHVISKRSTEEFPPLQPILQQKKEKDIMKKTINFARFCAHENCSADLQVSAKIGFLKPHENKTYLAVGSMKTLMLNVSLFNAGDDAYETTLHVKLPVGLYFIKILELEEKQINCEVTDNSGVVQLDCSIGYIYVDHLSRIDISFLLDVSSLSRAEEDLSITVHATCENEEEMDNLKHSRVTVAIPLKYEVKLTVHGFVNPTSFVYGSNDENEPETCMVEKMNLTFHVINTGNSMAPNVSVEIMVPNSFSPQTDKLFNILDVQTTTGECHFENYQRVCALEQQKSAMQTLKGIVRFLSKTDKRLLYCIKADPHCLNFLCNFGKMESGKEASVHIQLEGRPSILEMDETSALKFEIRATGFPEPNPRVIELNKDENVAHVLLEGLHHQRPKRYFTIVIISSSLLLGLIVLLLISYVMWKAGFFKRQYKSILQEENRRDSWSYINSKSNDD
T1 sequence (P05556 21-798): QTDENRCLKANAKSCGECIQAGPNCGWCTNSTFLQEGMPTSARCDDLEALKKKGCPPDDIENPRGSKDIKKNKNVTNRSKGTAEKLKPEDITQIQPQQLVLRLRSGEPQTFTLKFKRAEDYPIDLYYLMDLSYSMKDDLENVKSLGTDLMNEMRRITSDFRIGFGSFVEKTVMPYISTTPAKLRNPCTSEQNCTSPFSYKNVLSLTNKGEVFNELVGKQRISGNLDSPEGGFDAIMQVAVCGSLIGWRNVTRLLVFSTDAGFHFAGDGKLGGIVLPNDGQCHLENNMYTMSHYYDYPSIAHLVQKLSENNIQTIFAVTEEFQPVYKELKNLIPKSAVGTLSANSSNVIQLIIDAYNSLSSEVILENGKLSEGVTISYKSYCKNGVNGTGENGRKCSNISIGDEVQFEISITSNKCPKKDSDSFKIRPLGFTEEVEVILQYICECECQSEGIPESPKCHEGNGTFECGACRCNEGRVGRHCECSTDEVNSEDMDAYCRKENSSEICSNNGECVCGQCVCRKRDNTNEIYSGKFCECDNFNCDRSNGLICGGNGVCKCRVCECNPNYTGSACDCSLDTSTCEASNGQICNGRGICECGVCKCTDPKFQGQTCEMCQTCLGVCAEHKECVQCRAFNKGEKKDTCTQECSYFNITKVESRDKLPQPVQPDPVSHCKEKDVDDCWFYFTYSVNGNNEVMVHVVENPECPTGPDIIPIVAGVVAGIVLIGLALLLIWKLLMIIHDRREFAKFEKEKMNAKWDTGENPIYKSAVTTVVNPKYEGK

The first assay addresses T1, VLA-4 (Homo sapiens, UniProt P05556+P13612).
T1 construct: host or cells: Jurkat clone E6-1
Briefly: Adhesion of Jurkat cells to immobilized VCAM-1 (domains 1-3). In kind it is cell-based. Further details: scale not given here. As to conditions: adhesion of CFSE-labeled Jurkat cells to recombinant human VCAM-1 (domains 1-3) coated plates; compounds as yielded by solid phase synthesis, purity about 40-90%. Summed up: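 CFSE-labelled Jurkat E6-1 cells in Tris buffer pH 7.4 with 2 mM MnCl2 were added to wells coated with insect-cell-expressed human VCAM-1 domains 1-3 (0.5 μg/ml coating solution); labelled cells were incubated for 30 min at 37 °C with the VLA-4 inhibitor.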
As to `Cc1cc(C)c(OC(=O)N2CCCC(C(=O)N[C@@H](Cc3ccc(-c4ccc(Cl)cc4Cl)cc3)C(=O)O)C2)c(C)c1` (stereo partly drawn) [Example 1.47], the IC50 result was “C-D”. Still for that read-out and setting: as for `CCCNc1ncnc(N2CCCC(C(=O)N[C@@H](Cc3ccc(-c4cc(Cl)ccc4Cl)cc3)C(=O)O)C2)c1F` (stereo partly drawn) [Example 2.37], the entry is “C-D”; as for `Cc1ccc(-c2ccc(C[C@H](NC(=O)C3CCCN(C(=O)Cc4ccccc4)C3)C(=O)O)cc2)cc1` (stereo partly drawn) [Example 1.17], “C-D”.

As for `COc1ccc(S(=O)(=O)N2CCCC(C(=O)N[C@@H](Cc3ccc(-c4cc(Cl)ccc4Cl)cc3)C(=O)O)C2)cc1OC` (stereo partly drawn) [Example 1.108], the IC50 result is “C-D”. The same measure, in the same setting: as for `O=C(N[C@@H](Cc1ccc(-c2ccccc2)cc1)C(=O)O)C1CCCN(C(=O)Cc2ccccc2)C1` (stereo partly drawn) [Example 1.7], the entry is “C-D”; as for `O=C(N[C@@H](Cc1ccc(-c2cc(Cl)ccc2Cl)cc1)C(=O)O)C1CCCN(S(=O)(=O)c2ccc3ccccc3c2)C1` (stereo partly drawn) [Example 1.106], “C-D”; as for `CCCNc1ncnc(N2CCCC(C(=O)N[C@@H](Cc3ccc(-c4ccc(OC)cc4)cc3)C(=O)O)C2)c1F` (stereo partly drawn) [Example 2.20], “C-D”.

With `COc1ccc(-c2ccc(C[C@H](NC(=O)C3CCCN(S(=O)(=O)c4c(Cl)cccc4Cl)C3)C(=O)O)cc2)cc1` (stereo partly drawn) [Example 1.79], the concentration for half-maximal inhibition (IC50) entry is given as “C-D”.

On to `Cc1ccc(-c2ccc(C[C@H](NC(=O)C3CCCN(c4ncnc(NCCN5CCCC5)c4F)C3)C(=O)O)cc2)cc1` (stereo partly drawn) [Example 2.12], for which the IC50 entry was “C-D”. For `Cc1ccccc1-c1ccc(C[C@H](NC(=O)C2CCCN(c3ncnc(N4CCCCC4)c3F)C2)C(=O)O)cc1` (stereo partly drawn) [Example 2.26], the IC50 result was “C-D”. Same read-out and setting: the same measure for `Cc1ccccc1-c1ccc(C[C@H](NC(=O)C2CCCN(C(=O)c3ccc4c(c3)OCO4)C2)C(=O)O)cc1` (stereo partly drawn) [Example 1.33]: “C-D”. Still for that read-out and setting: the same measure for `O=C(N[C@@H](Cc1ccc(-c2ccc(Cl)cc2Cl)cc1)C(=O)O)C1CCCN(C(=O)c2ccc3c(c2)OCO3)C1` (stereo partly drawn) [Example 1.43]: “C-D”; for `COc1ccc(-c2ccc(C[C@H](NC(=O)C3CCCN(c4ncnc(NC5Cc6ccccc6C5)c4F)C3)C(=O)O)cc2)cc1` (stereo partly drawn) [Example 2.21]: “C-D”; for `O=C(N[C@@H](Cc1ccc(-c2ccc(Cl)c(Cl)c2)cc1)C(=O)O)C1CCCN(c2ncnc(NCc3ccccn3)c2F)C1` (stereo partly drawn) [Example 2.41]: “C-D”. The same measure, in the same setting: as for `Cc1ccccc1-c1ccc(C[C@H](NC(=O)C2CCCN(S(=O)(=O)Cc3ccccc3)C2)C(=O)O)cc1` (stereo partly drawn) [Example 1.91], the entry is “C-D”.

For `COc1ccc(-c2ccc(C[C@H](NC(=O)C3CCCN(S(=O)(=O)Cc4ccccc4)C3)C(=O)O)cc2)cc1` (stereo partly drawn) [Example 1.82], the IC50 entry is recorded as “C-D”. On the same count and under the same terms, as for `O=C(N[C@@H](Cc1ccc(-c2ccc(Cl)cc2Cl)cc1)C(=O)O)C1CCCN(C(=O)C2CCCCC2)C1` (stereo partly drawn) [Example 1.44], the entry is “C-D”; as for `Cc1ccccc1-c1ccc(C[C@H](NC(=O)C2CCCN(C(=O)c3ccccc3Cl)C2)C(=O)O)cc1` (stereo partly drawn) [Example 1.36], “C-D”; as for `CCCCN(C)c1ncnc(N2CCCC(C(=O)N[C@@H](Cc3ccc(-c4ccccc4C)cc3)C(=O)O)C2)c1F` (stereo partly drawn) [Example 2.33], “C-D”. Regarding `Cc1ccc(-c2ccc(C[C@H](NC(=O)C3CCCN(S(=O)(=O)c4ccccc4C(F)(F)F)C3)C(=O)O)cc2)cc1` (stereo partly drawn) [Example 1.71], the IC50 entry is given as “C-D”.

Regarding `COc1ccc(-c2ccc(C[C@H](NC(=O)C3CCCN(c4ncnc(N(C)Cc5ccccc5)c4F)C3)C(=O)O)cc2)cc1` (stereo partly drawn) [Example 2.18], the IC50 entry was “C-D”. Still for that read-out and setting: the same measure for `O=C(N[C@@H](Cc1ccc(-c2ccc(Cl)cc2Cl)cc1)C(=O)O)C1CCCN(C(=O)c2cccc(Cl)c2)C1` (stereo partly drawn) [Example 1.41]: “C-D”. Still for that read-out and setting: as for `CC1(C)C2CCC1(CS(=O)(=O)N1CCCC(C(=O)N[C@@H](Cc3ccc(-c4cc(Cl)ccc4Cl)cc3)C(=O)O)C1)C(=O)C2` (stereo partly drawn) [Example 1.103], the entry is “C-D”; as for `Cc1ccccc1-c1ccc(C[C@H](NC(=O)C2CCCN(S(=O)(=O)CC34CCC(CC3=O)C4(C)C)C2)C(=O)O)cc1` (stereo partly drawn) [Example 1.84], “C-D”; as for `COc1ccc(-c2ccc(C[C@H](NC(=O)C3CCCN(c4ncnc(NCCN5CCCC5)c4F)C3)C(=O)O)cc2)cc1` (stereo partly drawn) [Example 2.22], “C-D”. On the same count and under the same terms, the same measure for `COc1ccc(Cl)cc1S(=O)(=O)N1CCCC(C(=O)N[C@@H](Cc2ccc(-c3ccccc3C)cc2)C(=O)O)C1` (stereo partly drawn) [Example 1.90]: “C-D”; for `CC1(C)C2CCC1(CS(=O)(=O)N1CCCC(C(=O)N[C@@H](Cc3ccc(-c4ccccc4)cc3)C(=O)O)C1)C(=O)C2` (stereo partly drawn) [Example 1.55]: “C-D”.

On to `COc1ccc(-c2ccc(C[C@H](NC(=O)C3CCCN(c4ncnc(N5CCOCC5)c4F)C3)C(=O)O)cc2)cc1` (stereo partly drawn) [Example 2.17], for which the IC50 result is reported as “C-D”.

On to `Cc1ccc(C(=O)N2CCCC(C(=O)N[C@@H](Cc3ccc(-c4ccc(Cl)cc4Cl)cc3)C(=O)O)C2)cc1` (stereo partly drawn) [Example 1.42], for which the concentration for half-maximal inhibition (IC50) entry is on record as “B-C”. On the same count and under the same terms, the same measure for `COc1ccc(-c2ccc(C[C@H](NC(=O)C3CCCN(S(=O)(=O)c4cc(Cl)ccc4OC)C3)C(=O)O)cc2)cc1` (stereo partly drawn) [Example 1.81]: “C-D”; for `COC(=O)c1ccccc1S(=O)(=O)N1CCCC(C(=O)N[C@@H](Cc2ccc(-c3cc(Cl)ccc3Cl)cc2)C(=O)O)C1` (stereo partly drawn) [Example 1.105]: “C-D”.

Still in this assay, the particulars now being: adhesion of CFSE-labeled Jurkat cells to recombinant human VCAM-1 (domains 1-3) coated plates; compounds as yielded by solid phase synthesis, purity about 40-90%; read-out: IC50.
`CN1CCN(C(=O)Nc2ccc(C[C@H](NC(=O)C3CCCN(c4ncnc(NCC(c5ccccc5)c5ccccc5)c4F)C3)C(=O)O)cc2)CC1` (stereo partly drawn) [Example 5.18]: the IC50 was in the range of 0.5 to 2 µM. Same read-out and setting: as for `O=C(N[C@@H](Cc1ccc(NC(=O)N2CCc3ccccc3C2)cc1)C(=O)O)C1CCCN(C(=O)Cc2cccs2)C1` (stereo partly drawn) [Example 4.9], the figure is no more than 0.5 µM; as for `COc1ccccc1-c1ccc(C[C@H](NC(=O)C2CCCN(c3ncnc(NCc4ccccn4)c3F)C2)C(=O)O)cc1` (stereo partly drawn) [Example 2.51], 0.5 to 2 µM; as for `Cc1ccc(S(=O)(=O)N2CCCC(C(=O)N[C@@H](Cc3ccc(-c4cc(Cl)ccc4Cl)cc3)C(=O)O)C2)cc1` (stereo partly drawn) [Example 1.104], no more than 0.5 µM. `O=C(N[C@@H](Cc1ccc(NC(=O)N2CCOCC2)cc1)C(=O)O)C1CCCN(C(=O)Nc2ccc(-c3ccccc3)cc2)C1` (stereo partly drawn) [Example 4.59]: the IC50 lay in the range of 0.5 to 2 µM.

With `CN1CCN(C(=O)Nc2ccc(C[C@H](NC(=O)C3CCCN(C(=O)c4ccc(OC(F)(F)F)cc4)C3)C(=O)O)cc2)CC1` (stereo partly drawn) [Example 4.3], the 50% inhibitory concentration (IC50) lay within 0.5 to 2 µM. Same read-out and setting: as for `Cc1ccc(S(=O)(=O)N2CCCC(C(=O)N[C@@H](Cc3ccc(NC(=O)N4CCN(C)CC4)cc3)C(=O)O)C2)cc1` (stereo partly drawn) [Example 4.11], the figure is no more than 0.5 µM; as for `O=C(N[C@@H](Cc1ccc(NC(=O)N2CCN(c3ccccc3)CC2)cc1)C(=O)O)C1CCCN(C(=O)c2ccc(OC(F)(F)F)cc2)C1` (stereo partly drawn) [Example 4.8], 2 to 10 µM; as for `O=C(N[C@@H](Cc1ccc(NC(=O)N2CCN(c3ccccc3)CC2)cc1)C(=O)O)C1CCCN(c2ncnc(NCCc3ccccn3)c2F)C1` (stereo partly drawn) [Example 5.39], 0.5 to 2 µM. As for `O=C(N[C@@H](Cc1ccc(-c2cc(Cl)ccc2Cl)cc1)C(=O)O)C1CCCN(C(=O)c2ccccc2Cl)C1` (stereo partly drawn) [Example 1.54], the IC50 lay within 2 to 10 µM. On the same count and under the same terms, the same measure for `O=C(N[C@@H](Cc1ccc(NC(=O)N2CCc3ccccc3C2)cc1)C(=O)O)C1CCCN(C(=O)C2CCCCC2)C1` (stereo partly drawn) [Example 4.53]: 0.5 to 2 µM. Same read-out and setting: as for `COCCNc1ncnc(N2CCCC(C(=O)N[C@@H](Cc3ccc(NC(=O)N4CCc5ccccc5C4)cc3)C(=O)O)C2)c1F` (stereo partly drawn) [Example 5.16], the figure is 2 to 10 µM; as for `O=C(N[C@@H](Cc1ccc(-c2cc(Cl)ccc2Cl)cc1)C(=O)O)C1CCCN(C(=O)c2cccc(Cl)c2)C1` (stereo partly drawn) [Example 1.50], 2 to 10 µM; as for `COc1ccc(CCNc2ncnc(N3CCCC(C(=O)N[C@@H](Cc4ccc(NC(=O)N5CCN(C)CC5)cc4)C(=O)O)C3)c2F)cc1` (stereo partly drawn) [Example 5.7], 0.5 to 2 µM. Still for that read-out and setting: the same measure for `O=C(N[C@@H](Cc1ccc(-c2cc(Cl)ccc2Cl)cc1)C(=O)O)C1CCCN(c2ncnc(NC3CCCCC3)c2F)C1` (stereo partly drawn) [Example 2.34]: 2 to 10 µM; for `CN(c1ncnc(N2CCCC(C(=O)N[C@@H](Cc3ccc(NC(=O)N4CCN(c5ccccc5)CC4)cc3)C(=O)O)C2)c1F)C1CCCCC1` (stereo partly drawn) [Example 5.43]: 0.5 to 2 µM; for `O=C(N[C@@H](Cc1ccc(-c2ccc(Cl)cc2Cl)cc1)C(=O)O)C1CCCN(C(=O)c2ccccc2Cl)C1` (stereo partly drawn) [Example 1.4, (2S)-2-({[1-(2-chlorobenzoyl)-3-piperidinyl]carbonyl}amino)-3-(2′,4′-dichloro[1,1′-biphenyl]-4-yl)propanoic acid]: 0.5 to 2 µM. Regarding `COc1ccccc1-c1ccc(C[C@H](NC(=O)C2CCCN(c3ncnc(NCCc4c[nH]cn4)c3F)C2)C(=O)O)cc1` (stereo partly drawn) [Example 5.3], the IC50 was in the range of 2 to 10 µM. Still for that read-out and setting: the same measure for `CN1CCN(C(=O)Nc2ccc(C[C@H](NC(=O)C3CCCN(c4ncnc(NC5CCCC5)c4F)C3)C(=O)O)cc2)CC1` (stereo partly drawn) [Example 5.24]: 2 to 10 µM; for `O=C(N[C@@H](Cc1ccc(NC(=O)N2CCOCC2)cc1)C(=O)O)C1CCCN(C(=O)NC2CCCCC2)C1` (stereo partly drawn) [Example 4.58]: 0.5 to 2 µM; for `O=C(N[C@@H](Cc1ccc(-c2cc(Cl)ccc2Cl)cc1)C(=O)O)C1CCCN(c2ncnc(N3CCNCC3)c2F)C1` (stereo partly drawn) [Example 2.2, (2S)-3-(2′,5′-dichloro[1,1′-biphenyl]-4-yl)-2-[({1-[5-fluoro-6-(1-piperazinyl)-4-pyrimidinyl]-3-piperidinyl}carbonyl)amino]propanoic acid]: no more than 0.5 µM. On the same count and under the same terms, the same measure for `CC1CCCCN1c1ncnc(N2CCCC(C(=O)N[C@@H](Cc3ccc(NC(=O)N4CCc5ccccc5C4)cc3)C(=O)O)C2)c1F` (stereo partly drawn) [Example 5.41]: 0.5 to 2 µM; for `CN1CCN(C(=O)Nc2ccc(C[C@H](NC(=O)C3CCCN(c4ncnc(N5CCCCCC5)c4F)C3)C(=O)O)cc2)CC1` (stereo partly drawn) [Example 5.20]: 0.5 to 2 µM.
